{"source": "paper PMC6934184", "about": "“Selective DNA-PKcs inhibition extends the therapeutic index of localized radiotherapy and chemotherapy” (The Journal of Clinical Investigation, 2019)", "molecular_target": "T1, GRK6 (Homo sapiens, UniProt P43250)", "T1 construct": "purchased Thermo Fisher Scientific (Life Technologies) SelectScreen", "T1 sequence (P43250 whole entry)": "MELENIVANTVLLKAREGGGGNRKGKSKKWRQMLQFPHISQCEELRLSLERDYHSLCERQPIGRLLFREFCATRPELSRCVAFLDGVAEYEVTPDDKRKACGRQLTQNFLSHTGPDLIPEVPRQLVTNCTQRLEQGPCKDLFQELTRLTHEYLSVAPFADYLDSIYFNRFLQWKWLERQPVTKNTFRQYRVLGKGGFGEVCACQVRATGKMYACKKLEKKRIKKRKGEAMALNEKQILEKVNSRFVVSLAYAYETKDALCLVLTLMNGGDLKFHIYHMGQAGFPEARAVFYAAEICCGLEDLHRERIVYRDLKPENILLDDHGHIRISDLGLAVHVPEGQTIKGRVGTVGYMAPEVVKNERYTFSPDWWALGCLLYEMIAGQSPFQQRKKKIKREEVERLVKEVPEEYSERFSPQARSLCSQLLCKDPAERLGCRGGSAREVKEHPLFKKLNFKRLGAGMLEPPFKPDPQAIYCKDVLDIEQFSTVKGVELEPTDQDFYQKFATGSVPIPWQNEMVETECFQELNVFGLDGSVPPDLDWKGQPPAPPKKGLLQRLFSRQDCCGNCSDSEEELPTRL", "experiment": "SelectScreen Z'LYTE", "assay_type": "biochemical", "outline": "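Compound tested in SelectScreen activity assays, Z'LYTE for CSF1R, CDK1/cyclin B and MAP2K6 and Adapta for CAMK1. ATP for CAMK1 was listed as 10, and Km app was used for CSF1R. Results are expressed in percent.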"}
{"smiles": "CN(C(=O)CN1CCOCC1)c1ccc2sc3c(-c4cccc5c(=O)cc(N6CC7CCC(C6)O7)oc45)cccc3c2c1", "note": "[NU5455]", "values": [{"measurement": "inhibition at 1 µM", "result": 3.7, "unit": "%"}]}
